Measurements reported in patent publication US20230192785A1, “JNK3 INHIBITORY PEPTIDES” (UNIVERSITA' DEGLI STUDI DI MILANO, priority 2020, published 2023).
Ends that are not written are not given here.

How the values were obtained:
mouse cortical neurons = assay: MTT toxicity assay on cortical neurons under control conditions; format: cell-based; conditions: 24 hours, 3 doses tested, FIG. 4A
Protocol: FIG. 4: A) Toxicity at the indicated concentrations of SIMBA2 was evaluated by MTT assay and it is expressed in % survival. Data are expressed as mean ± SEM of 3 independent experiments (n = 6). ANOVA one-way, Dunnett post hoc test. B) Western blot of cortical neurons under control conditions and relative quantification showing that SIMBA2 (0.25-0.5 µM) prevents the phosphorylation of APP at the T668 position in a dose-dependent manner. Data are expressed as mean ± SEM of 3 independent experiments (n = 6). ANOVA one-way, Dunnett’s post-hoc test, ** p <0.01. C) Western blot and related quantification showing that SIMBA2 (0.25-0.5 µM) reduces P-c-Jun phosphorylation in neurons. Data are expressed as mean ± SEM of 3 independent experiments (n = 6). […]
FIG. 10: A) Toxicity at the indicated concentrations of SIMBA2, evaluated by MTT assay and expressed as fold of change with respect to tcontrol. Data are expressed as mean ± SEM of 3 independent experiments (n = 6). […] B) Western blot of cortical neurons under control conditions in the absence (Ctr) or in the presence of SIMBA2 1 µM (1) and relative quantification showing that SIMBA2 (1 µM) at 24 h prevents the phosphorylation of P-c-Jun and reduces the phosphorylation of the APP at position T668 and C) the activity is maintained at 3 days and D) at 6 days after treatment. Data are expressed as mean ± SEM of 2 independent experiments (n = 5). […]

[1] = Toxicity after single injection: body weight and side effects in mice; format: in vivo, mouse
Protocol: FIG. 9: A) Measurement of body weight in mice before treatment. Data are expressed as mean body weight (g) ± SEM. B) Weight gain or loss was analyzed as the difference between the weight at the end and before the treatment. Data are expressed as mean ± SEM.
Therefore, SIMBA2 at the highest dose was able to prevent synaptopathy in vivo.
The toxicity of SIMBA2 after a single injection was evaluated. As an index of the general health of the animals, the change in the body weight of the mice was evaluated. […] 1 month after the I.P. injection, the body weight was measured again.

JNK3 = JNK3 (Homo sapiens, UniProt P53779); assay: Alpha Screen Kinase Assay, cell-free JNK3 activity; format: biochemical; conditions: cell-free AlphaScreen, FIG. 3B
Sequence of JNK3 (P53779 whole entry, species assumed): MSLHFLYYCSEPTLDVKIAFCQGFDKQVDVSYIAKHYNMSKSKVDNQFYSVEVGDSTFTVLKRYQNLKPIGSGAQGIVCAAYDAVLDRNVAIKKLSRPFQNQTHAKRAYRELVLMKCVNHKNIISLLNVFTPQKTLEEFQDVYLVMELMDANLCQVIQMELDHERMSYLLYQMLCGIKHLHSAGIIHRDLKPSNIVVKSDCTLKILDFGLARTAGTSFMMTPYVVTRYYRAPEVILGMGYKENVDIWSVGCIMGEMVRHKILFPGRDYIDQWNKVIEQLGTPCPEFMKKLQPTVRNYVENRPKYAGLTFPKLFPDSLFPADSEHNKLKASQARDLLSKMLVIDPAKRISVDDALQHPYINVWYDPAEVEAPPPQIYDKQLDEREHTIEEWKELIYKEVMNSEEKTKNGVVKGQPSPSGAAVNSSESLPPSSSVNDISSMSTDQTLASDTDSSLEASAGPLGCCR
Protocol: FIG. 3: A) Cell-free assay of JNK1 activity in the presence of peptides according to the invention.
To evaluate the specificity of the four peptides described above for JNK3, the Alpha Screen Kinase Assay was performed, following the experimental method described for the cell-free assays. Briefly, this AlphaScreen assay is used to measure the ability of the JNK kinase to phosphorylate its targets. The kinase reaction was performed under the following buffer conditions of the assay: 20 mM Tris / HCl (pH 7.4), 10 mM MgCl2, 1 mM DTT, 100 µM Na3VO4 and 0.01% Tween-20. Compounds (final concentration 5 µg / mL, 1% DMSO) or the control vehicle (final concentration 1% DMSO) were diluted in the assay buffer and mixed with JNK kinase (final concentration 5 nM). After an incubation time of 15 minutes at room temperature, biotinylated substrate, 6 nM final and ATP, 1 µM final diluted in assay buffer were added, followed by incubation of the dishes for 2 hours at room temperature. After this incubation period, the streptavidin donor and acceptor beads coated with anti-phosphosubstrate protein A antibody were added, with a final concentration of each component of 20 µg / mL, diluted in the following buffer: 20 mM Tris / HCl (pH 7.4), 200 mM NaCl, 80 mM ethylenediamine tetraacetic acid (EDTA) and 0.3% bovine serum albumin (BSA). After an overnight incubation, the dosage was measured using the AlphaQuest reader.
The ATP-competitive and non-selective inhibitor SP600125 was used as a positive control for the different isoforms of JNK.

Substance | toxicity (MTT, % survival) (mouse cortical neurons) | change in body weight ([1]; 1 month after single I.P. injection, FIG. 9B) | side effects in vivo ([1]; TgCRND8 mice, 22 mg/kg) | inhibition of JNK3 activity on p-c-Jun (JNK3)
SDRSLHLEANEKGENVNVHVTKTRADKSKIKVSVRQYADINEKGEAQYKCPVAQLE [SIMBA2] | no toxicity | did not show changes in body weight | did not lead to the onset of any noticeable side effects | 
SIMBA2 long A: peptide SDRSLHLEANEKGENVNVHVTKTNEKGEKIKVSVRQYADINEKGEAQYKCPVAQLE (Designed peptide based on size and structure to act in the interaction among beta-arrestin-2 and JNK3) |  |  |  | inhibit the activity of JNK3 on p-c-Jun in a concentration-dependent manner
SIMBA2 short A: peptide SDRSLHLEAEKGNVNVHVTKTEKGKIKVSVRQYADIEKGAQYKCPVAQLE (Designed peptide based on size and structure to act in the interaction among beta-arrestin-2 and JNK3) |  |  |  | inhibit the activity of JNK3 on p-c-Jun in a concentration-dependent manner
SIMBA2 short B: peptide SDRSLHLEAEKGNVNVHVTKTADKKIKVSVRQYADIEKGAQYKCPVAQLE (Designed peptide based on size and structure to act in the interaction among beta-arrestin-2 and JNK3) |  |  |  | inhibit the activity of JNK3 on p-c-Jun in a concentration-dependent manner
